Converted amounts (≈) assume the structure as drawn. Read-outs that look alike come from different tables or passages of the source.
Legend:
[1] = test system: Klebisiella pneumoniae ATCC 10031; experiment: Antimicrobial activity, agar dilution method (MIC), KP; type: cell-based
Text: | KP: Klebisiella pneumoniae ATCC 10031

[2] = test system: Enterococcus hirae ATCC 10541; experiment: Antimicrobial activity, agar dilution method (MIC), EH; conditions: pH 7
Experimental: Antimicrobial activity was determined by the agar dilution method using a culture medium (pH 7) prepared by dissolving 3 g of Bacto-Tryptone (manufactured by Difco, Co.), 3 g of meat extract, 1 g of yeast extract, 1 g of glucose, and 16 g of agar in 1 l of water.
EH: Enterococcus hirae ATCC 10541

HeLa S3 cells = experiment: HeLa S3 cell growth inhibition test (Neutral Red); type: cell-based; conditions: Homo sapiens, read-out: HeLa S3 Cell Growth Inhibition Activity, IC50
Experimental: In each well of a 96-well microtiter plate was placed 0.1 mL of HeLa S3 cells having a concentration of 8×10^3 cells/mL and prepared in an MEM culture medium containing 10% fetal bovine serum and 2 mM glutamine. After the cells were incubated overnight at 37° C. in a carbon dioxide incubator, a test compound suitably diluted with a medium was added to the wells in an amount of 0.05 mL for each well. The cells were incubated at 37° C. for 72 hours in a carbon dioxide incubator. After the culture supernatant was removed, 0.1 mL of a culture medium containing 0.02% Neutral Red was added to each well. The cells were then incubated at 37° C. for 1 hour in a carbon dioxide incubator to dye the cells. After the culture supernatant was removed, each residue was rinsed once with physiological saline and the pigment was extracted with 0.001N hydrochloric acid/30% ethanol. The absorbance at 550 nm of each extract was measured with a microplate reader. The drug concentration required for the 50% inhibition of cell growth, which is referred to as IC50, was calculated by comparing the absorbance for untreated cells with those for cells treated with the drug in known concentrations.

Escherichia coli ATCC 26 = experiment: Antimicrobial activity, agar dilution method (MIC), EC; type: cell-based
Text: | EC: Escherichia coli ATCC 26

[3] = test system: Bacillus substilis NO. 10707; experiment: Antimicrobial activity, agar dilution method (MIC), BS; type: cell-based
Text: | BS: Bacillus substilis NO. 10707

[4] = test system: Staphylococcus aureus ATCC 6538P; experiment: Antimicrobial activity, agar dilution method (MIC), SA; type: cell-based; conditions: ATCC6538P, pH 7, read-out: MIC, SA
Text: | SA: Staphylococcus aureus ATCC 6538P

[5] = test system: Sarcoma 180 mouse solid tumor; experiment: Antitumor activity against Sarcoma 180 mouse solid tumor; type: in vivo, male ddY mice; conditions: Sarcoma-180, iv, 168 h, single i.v., tumor volume on day 7 from transplant, read-out: T/C (tumor volume ratio treated/control)
Experimental: To a ddY mouse were intraperitoneally transplanted 5×10^6 sarcoma 180 cells. On the seventh day from the transplant, the cells were collected from the ascites, washed once with sterilized physiological saline, and then diluted with sterilized physiological saline to prepare a cell suspension having a concentration of 5×10^7 cells/mL. This suspension was transplanted in an amount of 0.01 mL to a subcutaneous part of the right axilla of each of male ddY mice each weighing 20±1 g.
A test compound was dissolved in physiological saline containing polyoxyethylene sorbitan monolaurate. At 24 hours after the tumor transplant, 0.2 mL of the solution was intravenously administered to the tail of each of a group of five mice.

[6] = agar dilution, pH 7, read-out: MIC, KP
[7] = ATCC26, pH 7, read-out: MIC, EC
[8] = NO.10707, agar dilution, pH 7, read-out: MIC, BS
[9] = NO.10707, pH 7, read-out: MIC, BS

## CC(=O)OC[C@H]1OC(OC2/C=C(\C)CCC3(CC(=O)NC(C)c4nc(cs4)/C=C\C=C\C2=O)[S+]([O-])SC(=O)C3(C)O)C[C@@H](OC(C)=O)[C@@H]1OC(C)=O (some centres unmarked) [Compound 53]
[1]; [6]
  MIC: 1.6 µg/mL (≈ 2.04 µM)
[2]
  MIC, EH: 0.20 µg/mL (≈ 0.255 µM)
HeLa S3 cells; HeLa S3, 72 h
  IC50: 16 nM
Escherichia coli ATCC 26; [7]
  MIC: 25 µg/mL (≈ 31.9 µM)
[3]; [8]
  MIC: 0.098 µg/mL (≈ 0.125 µM)
[4]; agar dilution
  MIC: 0.098 µg/mL (≈ 0.125 µM)

## COCCOCCOCC(=O)OC1/C=C(\C)CCC2(C(C)(O)C(=O)SCOC(=O)COCCOCCO)CC(=O)N(C(C)c3nc(cs3)/C=C\C=C\C1=O)[S+]2[O-] (centres unmarked) [Compound 47]
[5]
  response vs control in vivo at 8 mg/kg: 40%

## C/C1=C\C(OC(=O)COCCOCCOCCOCCO)C(=O)/C=C/C=C\c2csc(n2)C(C)NC(=O)CC2(CC1)[S+]([O-])SC(=O)C2(C)O (centres unmarked) [Compound 27]
[1]; [6]
  MIC: 0.065 µg/mL (≈ 0.0873 µM)
[2]
  MIC, EH: 0.065 µg/mL (≈ 0.0873 µM)
Escherichia coli ATCC 26; [7]
  MIC: 16.7 µg/mL (≈ 22.4 µM)
[5]
  response vs control in vivo at 8 mg/kg: 18%
[3]; [8]
  MIC: 0.13 µg/mL (≈ 0.175 µM)
[4]; agar dilution
  MIC: 0.13 µg/mL (≈ 0.175 µM)

## COCCOCCOCC(=O)OCCOCCOCC(=O)OC1/C=C(\C)CCC2(CC(=O)NC(C)c3nc(cs3)/C=C\C=C\C1=O)[S+]([O-])SC(=O)C2(C)O (centres unmarked) [Compound 30]
[5]
  response vs control in vivo at 4 mg/kg: 43%

## CC(=O)O[C@@H]1C=CC(OC2/C=C(\C)CCC3(C(C)(O)C(=O)SCc4oc(=O)oc4C)CC(=O)N(C(C)c4nc(cs4)/C=C\C=C\C2=O)[S+]3[O-])O[C@H]1C (some centres unmarked) [Compound 68]
[5]
  response vs control in vivo at 8 mg/kg: 50%

## COCCOCCOCC(=O)OC1/C=C(\C)CCC2(C(C)(O)C(=O)SCOC(=O)CC[C@H](NC(=O)C3(C)COC(C)(C)OC3)C(=O)OC)CC(=O)N(C(C)c3nc(cs3)/C=C\C=C\C1=O)[S+]2[O-] (some centres unmarked) [Compound 29]
[5]
  response vs control in vivo at 8 mg/kg: 47%

## COCCOCCOCC(=O)OC1/C=C(\C)CCC2(C(C)(O)C(=O)SCOC(=O)CC[C@H](NC(=O)[C@@]34O[C@H]5COC(C)(C)O[C@H]5[C@@H]3OC(C)(C)O4)C(=O)OC)CC(=O)N(C(C)c3nc(cs3)/C=C\C=C\C1=O)[S+]2[O-] (some centres unmarked) [Compound 28]
[5]
  response vs control in vivo at 8 mg/kg: 31%

## CC(=O)O[C@@H]1C=CC(OC2/C=C(\C)CCC3(C(C)(O)C(=O)SCc4oc(=O)oc4C)CC(=O)N(C(C)c4nc(cs4)/C=C\C=C\C2=O)[S+]3[O-])O[C@H]1C (some centres unmarked) [Compound 69]
HeLa S3 cells; HeLa S3, 72 hours, 37° C.
  IC50: 3.2 nM

## C/C1=C\C(OC2C=C[C@@H](O)[C@H](C)O2)C(=O)/C=C/C=C\c2csc(n2)C(C)N2C(=O)CC(C(C)(O)C(=O)SCc3oc(=O)oc3C)(CC1)[S+]2[O-] (some centres unmarked) [Compound 67]
[5]
  response vs control in vivo at 8 mg/kg: 44%

## COCCOCCOCCOCC(=O)OC1/C=C(\C)CCC2(C(C)(O)C(=O)SCc3oc(=O)oc3C)CC(=O)N(C(C)c3nc(cs3)/C=C\C=C\C1=O)[S+]2[O-] (centres unmarked) [Compound 13]
[5]
  response vs control in vivo at 8 mg/kg: 39%

## CC(=O)O[C@H]1[C@H](C)OC(OC2/C=C(\C)CCC3(C(C)(O)C(=O)SCc4oc(=O)oc4C)CC(=O)N(C(C)c4nc(cs4)/C=C\C=C\C2=O)[S+]3[O-])C[C@@H]1OC(C)=O (some centres unmarked) [Compound 66]
HeLa S3 cells; HeLa S3, 72 hours, 37° C.
  IC50: 6.1 nM
[5]
  response vs control in vivo at 4 mg/kg: 47%

## C/C1=C\C(OC(=O)COCCCO)C(=O)/C=C/C=C\c2csc(n2)C(C)NC(=O)CC2(CC1)[S+]([O-])SC(=O)C2(C)O (centres unmarked) [Compound 33]
[1]; [6]
  MIC: 0.13 µg/mL (≈ 0.207 µM)
[2]
  MIC, EH: 0.065 µg/mL (≈ 0.104 µM)
Escherichia coli ATCC 26; ATCC26, agar dilution, pH 7, read-out: MIC, EC
  MIC: 1 µg/mL (≈ 1.6 µM)
[5]
  response vs control in vivo at 2 mg/kg: 36%
[3]; [8]
  MIC: 0.065 µg/mL (≈ 0.104 µM)
[4]; agar dilution
  MIC: 0.13 µg/mL (≈ 0.207 µM)

## COCCOCC(=O)OCCOCCOCC(=O)OC1/C=C(\C)CCC2(CC(=O)NC(C)c3nc(cs3)/C=C\C=C\C1=O)[S+]([O-])SC(=O)C2(C)O (centres unmarked) [Compound 31]
[1]; [6]
  MIC: 0.057 µg/mL (≈ 0.0737 µM)
[2]
  MIC, EH: 0.11 µg/mL (≈ 0.142 µM)
Escherichia coli ATCC 26; [7]
  MIC: 3.65 µg/mL (≈ 4.72 µM)
[5]
  response vs control in vivo at 8 mg/kg: 12%
[3]; [8]
  MIC: 0.057 µg/mL (≈ 0.0737 µM)
[4]; agar dilution
  MIC: 0.11 µg/mL (≈ 0.142 µM)

## COCCOCCOCCOCCOCCOCC(=O)OC1/C=C(\C)CCC2(C(C)(O)C(=O)SCOC(=O)CNC(=O)OC(C)(C)C)CC(=O)N(C(C)c3nc(cs3)/C=C\C=C\C1=O)[S+]2[O-] (centres unmarked) [Compound 24]
HeLa S3 cells; HeLa S3, 72 hours, 37° C.
  IC50: 21 nM

## C/C1=C\C(OC(=O)COCCOCCOCCOCCO)C(=O)/C=C/C=C\c2csc(n2)C(C)N2C(=O)CC(C(C)(O)C(=O)SCc3oc(=O)oc3C)(CC1)[S+]2[O-] (centres unmarked) [Compound 38]
[1]; pH 7, read-out: MIC, KP
  MIC: 1.8 µg/mL (≈ 2.1 µM)
[2]
  MIC, EH: 1.8 µg/mL (≈ 2.1 µM)
[5]
  response vs control in vivo at 8 mg/kg: 43%
[3]; [9]
  MIC: 1.8 µg/mL (≈ 2.1 µM)
[4]
  MIC: 3.7 µg/mL (≈ 4.32 µM)

## C/C1=C\C(OC(=O)COCCOCCO)C(=O)/C=C/C=C\c2csc(n2)C(C)N2C(=O)CC(C(C)(O)C(=O)SCc3oc(=O)oc3C)(CC1)[S+]2[O-] (centres unmarked) [Compound 17]
[1]; pH 7, read-out: MIC, KP
  MIC: 1.8 µg/mL (≈ 2.34 µM)
[2]
  MIC, EH: 1.8 µg/mL (≈ 2.34 µM)
[5]
  response vs control in vivo at 8 mg/kg: 37%
[3]; [9]
  MIC: 1.82 µg/mL (≈ 2.37 µM)
[4]
  MIC: 1.8 µg/mL (≈ 2.34 µM)

## C/C1=C\C(OC(=O)COCCOCCO)C(=O)/C=C/C=C\c2csc(n2)C(C)NC(=O)CC2(CC1)[S+]([O-])SC(=O)C2(C)O (centres unmarked) [Compound 8]
[1]; [6]
  MIC: 0.13 µg/mL (≈ 0.198 µM)
[2]
  MIC, EH: 0.13 µg/mL (≈ 0.198 µM)
Escherichia coli ATCC 26; [7]
  MIC: 2.1 µg/mL (≈ 3.2 µM)
[5]
  response vs control in vivo at 4 mg/kg: 36%
[3]; [8]
  MIC: 0.13 µg/mL (≈ 0.198 µM)
[4]; agar dilution
  MIC: 0.13 µg/mL (≈ 0.198 µM)

## COCCOCCOCCOCCOCCOCC(=O)OC1/C=C(\C)CCC2(C(C)(O)C(=O)SCC3=C(C)OC(C)(C)OC3=O)CC(=O)N(C(C)c3nc(cs3)/C=C\C=C\C1=O)[S+]2[O-] (centres unmarked) [Compound 21]
[5]; 16 mg/kg
  response vs control in vivo at 16 mg/kg: 45%

## COCCOCCOC(C)(C)C(=O)OC1/C=C(\C)CCC2(CC(=O)NC(C)c3nc(cs3)/C=C\C=C\C1=O)[S+]([O-])SC(=O)C2(C)O (centres unmarked) [Compound 10]
[1]; [6]
  MIC: 0.65 µg/mL (≈ 0.93 µM)
[2]
  MIC, EH: 0.081 µg/mL (≈ 0.116 µM)
Escherichia coli ATCC 26; [7]
  MIC: 0.65 µg/mL (≈ 0.93 µM)
[3]; [8]
  MIC: 0.041 µg/mL (≈ 0.0587 µM)
[4]; agar dilution
  MIC: 0.081 µg/mL (≈ 0.116 µM)

## C/C1=C\C(OC(=O)COCCCCO)C(=O)/C=C/C=C\c2csc(n2)C(C)NC(=O)CC2(CC1)[S+]([O-])SC(=O)C2(C)O (centres unmarked) [Compound 35]
[1]; [6]
  MIC: 0.098 µg/mL (≈ 0.153 µM)
[2]
  MIC, EH: 0.098 µg/mL (≈ 0.153 µM)
Escherichia coli ATCC 26; [7]
  MIC: 1.6 µg/mL (≈ 2.5 µM)
[5]
  response vs control in vivo at 4 mg/kg: 22%
[3]; [8]
  MIC: 0.2 µg/mL (≈ 0.312 µM)
[4]; agar dilution
  MIC: 0.098 µg/mL (≈ 0.153 µM)

## COCCOCCOCC(=O)OC1/C=C(\C)CCC2(C(C)(O)C(=O)SCOC(=O)OCCOCCOC)CC(=O)N(C(C)c3nc(cs3)/C=C\C=C\C1=O)[S+]2[O-] (centres unmarked) [Compound 45]
[5]
  response vs control in vivo at 4 mg/kg: 45%

## COCCOCC(=O)OC1/C=C(\C)CCC2(C(C)(O)C(=O)SCc3oc(=O)oc3C)CC(=O)N(C(C)c3nc(cs3)/C=C\C=C\C1=O)[S+]2[O-] (centres unmarked) [Compound 11]
HeLa S3 cells; HeLa S3, 72 hours, 37° C.
  IC50: 30 nM

## COCCOCCOCC(=O)OC1/C=C(\C)CCC2(C(C)(O)C(=O)SCOC(=O)OCCN3CCCC3=O)CC(=O)N(C(C)c3nc(cs3)/C=C\C=C\C1=O)[S+]2[O-] (centres unmarked) [Compound 44]
[5]
  response vs control in vivo at 2 mg/kg: 43%

## COCCOCCOCC(=O)OC1/C=C(\C)CCC2(C(C)(O)C(=O)SCOC(=O)CC[C@H](NC(=O)OC(C)(C)C)C(=O)OC(C)(C)C)CC(=O)N(C(C)c3nc(cs3)/C=C\C=C\C1=O)[S+]2[O-] (some centres unmarked) [Compound 23]
HeLa S3 cells; HeLa S3, 72 hours, 37° C.
  IC50: 43 nM
[5]
  response vs control in vivo at 8 mg/kg: 48%

— patent US6080771A, “DC107 derivatives” (Kyowa Hakko Kogyo Co., Ltd., priority 1996, dated 2000)
